From patent EP0303028A1, “Method for preparing single chain urokinase” (GRUPPO LEPETIT S.p.A., priority 1987, dated 1989)
Square brackets hold non-standard residues; d marks the D form. Peptide text beside a SMILES is read from it. * marks the point of attachment. pNA = O=[N+]([O-])c1ccc(N*)cc1; pGlu = O=C1CC[C@@H](C(=O)O)N1

Legend:
Experiment in all cases: Kinetics of amidolytic activity on S-2444 (Lineweaver-Burk)
Assay type in all cases: biochemical
Settings in all cases: pH 8.8 and 37°C
[1] = target: plasmin-activated urinary scu-PA (human urine tcu-PA, urokinase) (Homo sapiens, UniProt P00749)
Procedure: (§1) The fibrinolytic assay is carried out by the fibrin plate method (Astrup T., Mullertz S., The fibrin plate method for estimating fibrinolytic activity, Arch Biochem Biophys 1952, 40:346-351). Urokinase reference standard is used to calibrate each assay. Activity is measured in International Units (I.U.) relative to the International Reference Preparation as the primary standard. sc-uPA (cell produced single chain urokinase) fibrinolytic latent activity is determined after activation as follows: plasmin (10 mg) is coupled with CNBr-activated Sepharose (cross-linked agarose) (2.5 ml) using 0.5 M sodium carbonate buffer as the coupling buffer. A 1:10 suspension of plasmin-agarose (0.9 ml) in 0.15 M sodium chloride, 0.05 M sodium phosphate buffer pH 7.4 is mixed with sc-uPA samples (0.1 ml) and gently rotated for 1 h at 20°C. Plasmin-agarose is removed by centrifugation 2 min at 10000 x g and the supernatant tested by the fibrin plate assay. Protein concentrations were measured according to the method of Lowry (Lowry O., Rosebrough H., Parr A., Randall R., Protein measurement with the Folin phenol reagent, J. Biol. Chem. 1951, 193,265-275). Amidolytic assays are performed by measuring the rate of hydrolysis of the synthetic substrate pyro-Glu-Gly-Arg-pNA, S-2444 (Claeson G., Friberger P., Knos M., Eriksson E., Methods for determination of pre-kallikrein in plasma, glandular kallikrein and urokinase, Haemostasis 1978; 7:76-78). Immunoadsorbent-amidolytic assay (IAA) is carried out as described by Corti A., Nolli ML., Cassani G., Differential detection of single-chain and two-chain urokinase type plasminogen activator by a new immunoadsorbent amidolytic assay (IAA), Throm Haemostas 1986, 56:407-10. The assay combines the selectivity of immunoassays with the specificity of enzyme activity assays exploiting both the antigenic and enzymatic properties of the two proteins. tcu-PA and scu-PA are selectively immunoadsorbed on the wells of a microtiter plate coated with the monoclonal antibody 5B4 and tested for enzymatic activity before and after activation by plasmin treatment.
(§2) To determine the kinetic parameters of the amidolytic activity, plasmin-activated u-PA's (4.5 nM) are incubated at different concentrations (0.03 - 0.3 mM) of pyro-Glu-Gly-Arg-p-nitroanilide (S-2444) in 0.1 M Tris Cl (pH 8.8), 50 mM NaCl and 0.1% bovine serum albumin at 37°C. The initial rate of p-nitroaniline release is determined photometrically at 405 nm. The linear increase of absorbance with time for the various concentrations of S-2444 is reported in a Lineweaver-Burk plot from which Km and Vmax are calculated by extrapolation of the curves obtained using a linear regression program.

[2] = target: plasmin-activated BPV-LB6-scu-PA (recombinant human uPA from BPV vector transfected murine LB6 cells) (Homo sapiens, UniProt P00749)
Procedure: as §1, §2

[3] = target: plasmin-activated A431 scu-PA (from untransformed human A431 cells) (Homo sapiens, UniProt P00749)
Procedure: as §1, §2

[4] = target: plasmin-activated RSV-CHO-scu-PA (recombinant human uPA from RSV-uPA transfected CHO cells) (Homo sapiens, UniProt P00749)
Procedure: as §1, §2

[5] = target: plasmin-activated RSV-LB6-scu-PA (3F11-scu-PA; recombinant human uPA from RSV-uPA transfected murine LB6 cells) (Homo sapiens, UniProt P00749)
Procedure: as §1, §2

[6] = target: plasmin-activated RSV-A431-scu-PA (recombinant human uPA from RSV-uPA transfected A431 cells) (Homo sapiens, UniProt P00749)
Procedure: as §1, §2

N=C(N)NCCC[C@H](NC(=O)CNC(=O)[C@@H]1CCC(=O)N1)C(=O)Nc1ccc([N+](=O)[O-])cc1 [S-2444, pyro-Glu-Gly-Arg-p-nitroanilide] ([pGlu]-Gly-Arg-pNA)
Km [1]: 80 µM
kcat [1]: 25 s⁻¹
Km [2]: 78 µM
kcat [2]: 26 s⁻¹
Km [3]: 72 µM
kcat [3]: 23 s⁻¹
Km [4]: 76 µM
kcat [4]: 26 s⁻¹
Km [5]: 69 µM
kcat [5]: 24 s⁻¹
Km [6]: 76 µM
kcat [6]: 23 s⁻¹
